The source of these data is US20110112282A1, “IDO INHIBITORS AND THERAPEUTIC USES THEREOF” (priority 2008, published 2011).

Each structure is given as a SMILES string.

The experiment has as its target purified recombinant IDO (Homo sapiens, UniProt P14902). Description: Enzymatic IDO inhibition assay (Takikawa et al., modified; kynurenine by HPLC). The experiment is classed as biochemical. Conditions: result in words; oxidized dimeric analogues. As for the experimental part:
The enzymatic inhibition assays were performed as described by Takikawa et al. [Takikawa, O.; Kuroiwa, T.; Yamazaki, F.; Kido, R. J Biol Chem, 1988, 263, 2041-2048.] with some modifications. Briefly, the reaction mixture (100 μl) contained potassium phosphate buffer (100 mM, pH 6.5) ascorbic acid (20 mM), catalase (200 units/ml), methylene blue (10 μM), purified recombinant IDO (2 ng/μl), and L-Trp (200 μM). The inhibitors were serially diluted ranging from 0.1 to 1000 μM. The reaction was carried out at 37° C. for 60 min and stopped by the addition of 30% (w/v) trichloroacetic acid (40 μl). To convert the product of Trp dioxygenation by IDO, N-formylkynurenine, to spectroscopically detectable kynurenine, the tubes were incubated at 50° C. for 30 min, followed by a centrifugation at 10000 g for 20 min. Lastly, 100 μl of supernatant from each probe was transfered to another tube for HPLC analysis. The mobile phase for HPLC measurements consisted of 50% sodium citrate buffer (40 mM, pH 2.25) and 50% methanol with 400 μM SDS. The flow rate through the S5-ODS1 column was chosen to be 1 ml/min, and kynurenine was detected at a wavelength of 365 nm.

Chain of purified recombinant IDO (P14902 whole entry): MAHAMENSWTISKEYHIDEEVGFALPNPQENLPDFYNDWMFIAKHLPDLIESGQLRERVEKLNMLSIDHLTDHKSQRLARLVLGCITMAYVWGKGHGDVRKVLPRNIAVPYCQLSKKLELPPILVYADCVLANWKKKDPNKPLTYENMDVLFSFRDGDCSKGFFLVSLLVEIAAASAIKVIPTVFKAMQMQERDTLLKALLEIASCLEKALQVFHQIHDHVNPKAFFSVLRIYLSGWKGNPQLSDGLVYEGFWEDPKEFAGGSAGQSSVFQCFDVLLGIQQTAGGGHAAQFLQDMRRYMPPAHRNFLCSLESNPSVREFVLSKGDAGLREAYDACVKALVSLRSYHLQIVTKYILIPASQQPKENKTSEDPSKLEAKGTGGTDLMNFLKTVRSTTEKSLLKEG

Consider `CC(C)/C=C1/C=C(C2=C/C(=N\C(C)C)c3ccccc3C2=O)C(=O)c2ccccc21` [Example 23], for which the activity in vitro entry is given as “excellent activity”.
Next, `CCC(CC)CC1C=C(C2=CC(CC(CC)CC)c3ccccc3C2=O)C(=O)c2ccccc21` (centres unmarked) [Example 24]: “excellent activity”.
